Assay results: US20160346347A1 (Oculis ehf., priority 2015, published 2016)

Assays:
[1] = format: physicochemical
Procedure: An excess amount of drug was added to aqueous solutions containing up to 20% (w/v) cyclodextrin. The solutions were sonicated at 40-50° C. for 45-60 minutes in sealed glass vials, and then allowed to cool to room temperature (22-23° C.). Small amount of solid drug was then added to each vial, the vial resealed and allowed to equilibrate under constant agitation and protected from light for 7 days at room temperature. When the solutions had reached equilibrium, they were filtered through a 0.45 μm membrane filter and analyzed by high pressure liquid chromatography. […] The complexation efficiency (CE) was determined from the slope of phase-solubility diagrams (plots of total solubility of the drug versus total CD concentration in mol/l) where S0 is the intrinsic solubility of the drug:
The mobile phase consisted of acetonitrile, methanol and water (60:20:20), the flow rate was 1 ml/min, the column oven temperature was 80° C. and the detection wavelength was 205 nm.

[2] = in water (β-cyclodextrin: pure water at room temperature); cited from earlier work

Molecule | CE (complexation efficiency) [1] | Solubility in the presence of 5% (w/v) cyclodextrin [1] [µg/mL] | Solubility in the presence of 15% (w/v) cyclodextrin [1] [µg/mL] | aqueous solubility of the cyclodextrin [2]
2-Hydroxypropyl-α-cyclodextrin | 0.031 | 84 | 460 | –
2-Hydroxypropyl-γ-cyclodextrin | 0.0011 | 48 ± 4 | 62 ± 5 | –
OC[C@H]1O[C@@H]2O[C@H]3[C@H](O)[C@@H](O)[C@@H](O[C@H]4[C@H](O)[C@@H](O)[C@@H](O[C@H]5[C@H](O)[C@@H](O)[C@@H](O[C@H]6[C@H](O)[C@@H](O)[C@@H](O[C@H]7[C@H](O)[C@@H](O)[C@@H](O[C@H]1[C@H](O)[C@H]2O)O[C@@H]7CO)O[C@@H]6CO)O[C@@H]5CO)O[C@@H]4CO)O[C@@H]3CO [α-Cyclodextrin] | 0.54 | 760 ± 16 | – | 13 % (w/v)
OC[C@H]1O[C@@H]2O[C@H]3[C@H](O)[C@@H](O)[C@@H](O[C@H]4[C@H](O)[C@@H](O)[C@@H](O[C@H]5[C@H](O)[C@@H](O)[C@@H](O[C@H]6[C@H](O)[C@@H](O)[C@@H](O[C@H]7[C@H](O)[C@@H](O)[C@@H](O[C@H]8[C@H](O)[C@@H](O)[C@@H](O[C@H]9[C@H](O)[C@@H](O)[C@@H](O[C@H]1[C@H](O)[C@H]2O)O[C@@H]9CO)O[C@@H]8CO)O[C@@H]7CO)O[C@@H]6CO)O[C@@H]5CO)O[C@@H]4CO)O[C@@H]3CO [γ-Cyclodextrin] | 0.0049 | 62 ± 0.6 | 110 ± 1.5 | 25 % (w/v)

More lines, main results first:

CE (complexation efficiency) [1] | Solubility in the presence of 5% (w/v) cyclodextrin [1] [µg/mL] | Solubility in the presence of 15% (w/v) cyclodextrin [1] [µg/mL] | Molecule | aqueous solubility of the cyclodextrin [2]
0.030 | – | – | OC[C@H]1O[C@@H]2O[C@H]3[C@H](O)[C@@H](O)[C@@H](O[C@H]4[C@H](O)[C@@H](O)[C@@H](O[C@H]5[C@H](O)[C@@H](O)[C@@H](O[C@H]6[C@H](O)[C@@H](O)[C@@H](O[C@H]7[C@H](O)[C@@H](O)[C@@H](O[C@H]8[C@H](O)[C@@H](O)[C@@H](O[C@H]1[C@H](O)[C@H]2O)O[C@@H]8CO)O[C@@H]7CO)O[C@@H]6CO)O[C@@H]5CO)O[C@@H]4CO)O[C@@H]3CO [β-Cyclodextrin] | 2 % (w/v)
0.053 | 130 | – | Randomly methylated β-cyclodextrin | –
